Laboratory results from patent US20190015400A1, “Antifungal Compositions” (priority 2017, published 2019).

What was measured:
Type in all cases: cell-based, Candida albicans
[1] = test system: C. albicans ATCC 64124 (strain F); experiment: MIC and checkerboard assay, azoles + compounds 1-5; details: combination compound 2 + POS
Description: These compounds were serially diluted (two-fold dilutions) horizontally on the plate in 100 μL of RPMI medium. A diluted yeast culture (25 μL of a fungal stock with OD600 of 0.125 in 10 mL of RPMI medium, which achieves a final inoculum size of around 1-5×10^3 CFU/mL) was plated across the plate (100 μL per well), making a final volume of 200 μL total per well.
The appropriate range of concentrations for each compound was determined based on their corresponding MIC values against each fungal strain. The inoculum size for yeast and filamentous fungi were the same as in the MIC experiments described in section 2.2. The 96-well plates were incubated at 35° C. for 48 h for yeasts and 72 h for the Aspergillus strain before visual inspection for growth. […] The combinational effect of the two tested compounds were considered synergistic (abbreviated SYN) if FICI<0.5, additive (abbreviated ADD) if 0.5<FICI<4, and antagonistic if FICI>4 (TABLES 2-4).

[2] = test system: C. albicans ATCC 64124 (strain F) biofilm; experiment: Biofilm disruption assay (XTT, SMIC99), azoles + compound 2
Description: In order to investigate the synergistic effect of azoles and our compounds on inhibiting biofilm formation of C. albicans ATCC 64124 (strain F), we performed a biofilm disruption assay in a checkerboard setup and used XTT [2,3-bis(2-methoxy-4-nitro-5-sulfophenyl)-2H-tetrazolium-5-carboxanilide] reduction to examine the metabolic activity of the biofilm. Briefly, C. albicans ATCC 64124 (strain F) was grown overnight in YEPD broth at 35° C. The culture was then diluted to an OD600 of 0.12 (equivalent to 1×10^6 CFU/mL) and 100 μL was placed into each well of a 96-well plate. The cells were incubated at 37° C. for 24 h for growth. The following day, the spent medium containing planktonic cells was aspirated and each wells were carefully washed three times with sterile phosphate buffer saline (PBS). […] The negative control (medium only) and the positive control (biofilm plus medium) wells were also included in the same 96-well plate. The plates were then incubated at 37° C. statically for additional 24 h and then washed with sterile PBS. 100 μL of a XTT (0.5 mg/mL)/menadione (1 μM) solution was added to each well, covered with aluminum foil, and incubated for 2 h at 37° C. Then, 80 μL of the colored supernatant from each well was transferred to a new 96-well plate, and the absorption was read at OD490. The percent metabolic activity of the formed biofilm at various drug concentration combinations was calculated by dividing the metabolic activity of biofilm formed for that well by that of the biofilm formed in the growth control well (in the absence of any drug). For these experiments, the sessile MIC (SMIC99) was determined, which is defined as the drug concentration required to inhibit the metabolic activity of biofilm by 99% compared to the growth control. The assay for each combination was performed in duplicates.

[3] = test system: C. albicans ATCC 64124 (strain F); experiment: Time-kill assay, azoles + compound 2; details: drug alone at the concentration of the 8×MICcombo sample; 24 h
Description: Each sample was incubated at 35° C. with shaking at 200 rpm. At various time points (0, 3, 6, 9, 12, and 24 h), 100 μL aliquots were taken from each sample and serially diluted (10-fold dilutions) in sterile ddH2O. 100 μL of each dilution was spread onto PDA plates and incubated at 35° C. for 48 h before colony counts were determined (FIGS. 2A-B). At the end of the 24-h experiment, 50 μL of 1 mM sterile resazurin solution was added to each sample for visual comparison of growth. Each experiment was performed in duplicate.

[4] = test system: C. albicans ATCC 64124 (strain F) biofilm; experiment: Biofilm disruption assay (XTT, SMIC90), POS and EBA; details: drug alone
Description: (§1) Biofilm disruption assays. […] Biofilm assays were performed in 96-well plates using XTT [2,3-bis(2-methoxy-4-nitro-5-sulfophenyl)-2H-tetrazolium-5-carboxanilide] to measure the viability of the biofilm as previously described. An overnight culture of yeast was grown at 35° C. in YEPD medium with shaking at 200 rpm. The overnight culture was diluted in RPMI 1640 medium to an OD600 between 0.12 and 0.15 to make a working stock. Working stock was transferred to the 96-well plate in 100 μL aliquots, leaving one column empty for the sterile control. The plates were incubated at 37° C. for 24 h to allow formation of the biofilm. The medium and planktonic cells from the plate were then aspirated. PBS was then used to wash any remaining planktonic cells off of the biofilm wells. 100 μL of PBS was aliquoted into wells and then removed. The wells were washed 3 times with PBS. […] Plates were incubated at 37° C. for 24 h. Finally, the plates were washed 3 times with PBS before adding 100 μL of XTT dye. The XTT was prepared by dissolving XTT at 0.5 mg/mL concentration in sterile PBS. Before adding to a plate, 1 μL of 10 mM menadione in acetone was added to 10 mL of the 0.5 mg/mL solution of XTT. After addition of XTT (containing menadione), the plates were incubated at 3 h at 37° C. in the dark. 80 μL of liquid from each well was transferred to a new plate. Plates were then read with a SpectraMax M5 plate reader (Molecular Devices, Sunnyvale, Calif., USA) for absorbance at 450 nm. For these experiments, we determined the sessile MIC (SMIC90), which is defined as the drug concentration required to inhibit the metabolic activity of biofilm by 90% compared to the growth control. The SMIC90 values were used to calculate the FICI as described above (TABLE 10). The plates used to determine the SMIC90 are provided in FIGS. 91A-H. Each assay was performed in duplicate.

[5] = test system: C. albicans ATCC 10231 (strain B) biofilm; experiment: as above; details: drug alone
Description: as §1

SMILES: CC[C@@H]([C@H](C)O)n1ncn(-c2ccc(N3CCN(c4ccc(OC[C@@H]5CO[C@@](Cn6cncn6)(c6ccc(F)cc6F)C5)cc4)CC3)cc2)c1=O [POS, posaconazole]
- MIC in combination ([1]; MIC of the labelled drug): 4 µg/mL
- fold reduction in MIC (combination vs alone) ([1]; reduction for the labelled drug): 8 fold
- SMIC alone (μg/mL) Azole ([2]; azole alone, sessile cells): >32 µg/mL
- SMIC combo (μg/mL) Azole ([2]; azole in combination with compound 2): 0.5 µg/mL
- increase in CFU/mL [3]: about 1 order of magnitude
- SMIC90 [4]: > 32 µg/mL
- SMIC90 [5]: > 32 µg/mL
